# Measurements: ChEMBL document CHEMBL1177794, “Broad spectrum alkynyl inhibitors of T315I Bcr-Abl” (Bioorg Med Chem Lett, 2010)
# Experiments:
# [1] = biological target: STE20/SPS1-related proline-alanine-rich protein kinase (Homo sapiens) (UniProt Q9UEW8); assay: Inhibition of STK39 at 10 uM
# [2] = test system: Phosphatidylinositol 4,5-bisphosphate 3-kinase catalytic subunit alpha isoform (Homo sapiens), P42336 [Q546K]; assay: Inhibition of PIK3CA Q546K mutant at 10 uM
# [3] = biological target: Epidermal growth factor receptor (Homo sapiens) (UniProt P04626+P00533+Q15303+P21860); assay: Inhibition of EGFR S752-I759del mutant at 10 uM; values are per cent of control
# [4] = biological target: Tyrosine-protein kinase CSK (Homo sapiens) (UniProt P41240); assay: Inhibition of CSK at 10 uM; values are per cent of control
# [5] = biological target: Aurora kinase A (Homo sapiens) (UniProt O14965); assay: Inhibition of AURKA at 10 uM; settings: values are per cent of control
# [6] = biological target: Serine/threonine-protein kinase PAK 1 (Homo sapiens) (UniProt Q13153); assay: Inhibition of PAK1 at 10 uM
# [7] = biological target: Casein kinase II subunit alpha (Homo sapiens) (UniProt P68400); assay: Inhibition of CSNK2A1 at 10 uM; settings: values are per cent of control
# [8] = biological target: Interleukin-1 receptor-associated kinase 3 (Homo sapiens) (UniProt Q9Y616); assay: Inhibition of IRAK3 at 10 uM; settings: values are per cent of control
# [9] = biological target: RAC-beta serine/threonine-protein kinase (Homo sapiens) (UniProt P31751); assay: Inhibition of AKT2 at 10 uM; settings: values are per cent of control
# [10] = test system: Mast/stem cell growth factor receptor Kit (Homo sapiens), P10721 [V559D]; assay: Inhibition of KIT V559D mutant at 10 uM; settings: values are per cent of control
# [11] = biological target: Ephrin type-B receptor 6 (Homo sapiens) (UniProt O15197); assay: Inhibition of EPHB6 at 10 uM; settings: values are per cent of control
# [12] = biological target: Cyclin-dependent kinase 13 (Homo sapiens) (UniProt Q14004); assay: Inhibition of CDC2L5 at 10 uM; values are per cent of control
# [13] = biological target: Hepatocyte growth factor receptor (Homo sapiens) (UniProt P08581); assay: Inhibition of MET at 10 uM
# [14] = biological target: Tyrosine-protein kinase BTK (Homo sapiens) (UniProt Q06187); assay: Inhibition of BTK at 10 uM; values are per cent of control
# Chain of Tyrosine-protein kinase BTK (Homo sapiens) (Q06187 whole entry): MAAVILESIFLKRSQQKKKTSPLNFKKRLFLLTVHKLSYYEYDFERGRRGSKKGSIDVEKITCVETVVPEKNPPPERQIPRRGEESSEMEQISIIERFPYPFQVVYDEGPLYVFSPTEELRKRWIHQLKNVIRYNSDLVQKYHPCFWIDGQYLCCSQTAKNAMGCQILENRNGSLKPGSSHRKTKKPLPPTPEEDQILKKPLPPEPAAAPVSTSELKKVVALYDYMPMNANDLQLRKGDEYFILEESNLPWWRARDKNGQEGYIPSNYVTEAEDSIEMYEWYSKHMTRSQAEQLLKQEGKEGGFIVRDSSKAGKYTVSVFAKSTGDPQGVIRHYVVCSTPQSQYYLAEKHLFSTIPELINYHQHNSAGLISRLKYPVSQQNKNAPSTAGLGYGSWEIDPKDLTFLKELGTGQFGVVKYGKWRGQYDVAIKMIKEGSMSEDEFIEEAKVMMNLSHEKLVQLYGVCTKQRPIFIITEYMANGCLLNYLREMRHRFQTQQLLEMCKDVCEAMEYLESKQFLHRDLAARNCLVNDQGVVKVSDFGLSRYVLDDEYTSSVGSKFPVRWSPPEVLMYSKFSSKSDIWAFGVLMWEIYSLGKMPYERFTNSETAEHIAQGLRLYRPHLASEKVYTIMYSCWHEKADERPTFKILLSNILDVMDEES
# [15] = biological target: Serine/threonine-protein kinase 17B (Homo sapiens) (UniProt O94768); assay: Inhibition of DRAK2 at 10 uM; settings: values are per cent of control
# [16] = biological target: Serine/threonine-protein kinase 25 (Homo sapiens) (UniProt O00506); assay: Inhibition of YSK1 at 10 uM; settings: values are per cent of control
# Chain of Serine/threonine-protein kinase 25 (Homo sapiens) (O00506 whole entry, looked up, canonical isoform): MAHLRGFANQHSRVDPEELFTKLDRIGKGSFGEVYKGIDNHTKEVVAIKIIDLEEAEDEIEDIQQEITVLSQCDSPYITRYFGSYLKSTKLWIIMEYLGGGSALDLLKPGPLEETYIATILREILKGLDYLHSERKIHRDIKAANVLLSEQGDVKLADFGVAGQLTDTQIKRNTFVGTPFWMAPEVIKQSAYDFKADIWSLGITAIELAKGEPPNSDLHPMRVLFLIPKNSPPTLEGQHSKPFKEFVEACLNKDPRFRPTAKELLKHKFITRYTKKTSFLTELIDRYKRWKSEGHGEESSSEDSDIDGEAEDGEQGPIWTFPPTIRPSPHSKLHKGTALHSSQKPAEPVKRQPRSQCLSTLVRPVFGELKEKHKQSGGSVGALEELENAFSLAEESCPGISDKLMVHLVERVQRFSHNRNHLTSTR
# [17] = test system: Phosphatidylinositol 4,5-bisphosphate 3-kinase catalytic subunit alpha isoform (Homo sapiens), P42336 [E545A]; assay: Inhibition of PIK3CA E545A mutant at 10 uM
# [18] = biological target: Serine/threonine-protein kinase tousled-like 2 (Homo sapiens) (UniProt Q86UE8); assay: Inhibition of TLK2 at 10 uM; settings: values are per cent of control
# [19] = biological target: Serine/threonine-protein kinase 16 (Homo sapiens) (UniProt O75716); assay: Inhibition of STK16 at 10 uM
# [20] = biological target: Non-receptor tyrosine-protein kinase TYK2 (Homo sapiens) (UniProt P29597); assay: Inhibition of TYK2 JH2 pseudokinase domain at 10 uM; settings: values are per cent of control
# [21] = biological target: Serine/threonine-protein kinase PLK3 (Homo sapiens) (UniProt Q9H4B4); assay: Inhibition of PLK3 at 10 uM
# [22] = biological target: Tyrosine-protein kinase JAK2 (Homo sapiens) (UniProt O60674); assay: Inhibition of JAK2 JH1 catalytic domain at 10 uM; values are per cent of control
# Chain of Tyrosine-protein kinase JAK2 (Homo sapiens) (O60674 whole entry, the tested form may be a part): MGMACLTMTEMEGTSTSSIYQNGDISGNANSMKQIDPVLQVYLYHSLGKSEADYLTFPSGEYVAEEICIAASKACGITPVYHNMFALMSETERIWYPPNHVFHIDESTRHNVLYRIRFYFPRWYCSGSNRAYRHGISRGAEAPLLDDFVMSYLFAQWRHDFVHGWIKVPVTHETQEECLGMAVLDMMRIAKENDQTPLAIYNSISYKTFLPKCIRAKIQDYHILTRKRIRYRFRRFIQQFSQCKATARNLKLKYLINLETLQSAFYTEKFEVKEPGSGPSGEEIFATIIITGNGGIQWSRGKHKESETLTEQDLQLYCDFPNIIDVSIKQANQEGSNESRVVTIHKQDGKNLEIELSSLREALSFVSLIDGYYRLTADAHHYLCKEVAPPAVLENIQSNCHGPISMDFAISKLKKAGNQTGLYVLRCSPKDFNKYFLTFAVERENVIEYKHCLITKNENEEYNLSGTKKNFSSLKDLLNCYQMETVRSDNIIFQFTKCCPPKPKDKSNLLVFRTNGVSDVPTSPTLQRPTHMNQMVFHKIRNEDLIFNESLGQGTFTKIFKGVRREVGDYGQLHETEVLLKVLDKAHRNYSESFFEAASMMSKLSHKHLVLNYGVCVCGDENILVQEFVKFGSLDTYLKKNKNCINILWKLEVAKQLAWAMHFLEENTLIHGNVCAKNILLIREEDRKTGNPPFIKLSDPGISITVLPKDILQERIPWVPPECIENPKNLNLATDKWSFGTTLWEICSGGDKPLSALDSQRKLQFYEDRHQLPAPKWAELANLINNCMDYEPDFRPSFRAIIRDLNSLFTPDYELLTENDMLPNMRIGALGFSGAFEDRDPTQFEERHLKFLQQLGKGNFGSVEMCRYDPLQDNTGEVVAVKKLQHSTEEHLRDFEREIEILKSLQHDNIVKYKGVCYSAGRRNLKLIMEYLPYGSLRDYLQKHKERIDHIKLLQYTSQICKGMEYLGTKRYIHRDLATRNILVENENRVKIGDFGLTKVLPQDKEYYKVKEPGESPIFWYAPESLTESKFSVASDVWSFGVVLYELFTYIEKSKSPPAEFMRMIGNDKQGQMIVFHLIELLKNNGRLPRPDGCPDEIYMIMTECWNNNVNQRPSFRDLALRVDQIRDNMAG
# [23] = biological target: Serine/threonine-protein kinase ULK3 (Homo sapiens) (UniProt Q6PHR2); assay: Inhibition of ULK3 at 10 uM; settings: values are per cent of control
# [24] = biological target: Inhibitor of nuclear factor kappa-B kinase subunit alpha (Homo sapiens) (UniProt O15111); assay: Inhibition of IKK-alpha at 10 uM; settings: values are per cent of control
# Chain of Inhibitor of nuclear factor kappa-B kinase subunit alpha (Homo sapiens) (O15111 whole entry): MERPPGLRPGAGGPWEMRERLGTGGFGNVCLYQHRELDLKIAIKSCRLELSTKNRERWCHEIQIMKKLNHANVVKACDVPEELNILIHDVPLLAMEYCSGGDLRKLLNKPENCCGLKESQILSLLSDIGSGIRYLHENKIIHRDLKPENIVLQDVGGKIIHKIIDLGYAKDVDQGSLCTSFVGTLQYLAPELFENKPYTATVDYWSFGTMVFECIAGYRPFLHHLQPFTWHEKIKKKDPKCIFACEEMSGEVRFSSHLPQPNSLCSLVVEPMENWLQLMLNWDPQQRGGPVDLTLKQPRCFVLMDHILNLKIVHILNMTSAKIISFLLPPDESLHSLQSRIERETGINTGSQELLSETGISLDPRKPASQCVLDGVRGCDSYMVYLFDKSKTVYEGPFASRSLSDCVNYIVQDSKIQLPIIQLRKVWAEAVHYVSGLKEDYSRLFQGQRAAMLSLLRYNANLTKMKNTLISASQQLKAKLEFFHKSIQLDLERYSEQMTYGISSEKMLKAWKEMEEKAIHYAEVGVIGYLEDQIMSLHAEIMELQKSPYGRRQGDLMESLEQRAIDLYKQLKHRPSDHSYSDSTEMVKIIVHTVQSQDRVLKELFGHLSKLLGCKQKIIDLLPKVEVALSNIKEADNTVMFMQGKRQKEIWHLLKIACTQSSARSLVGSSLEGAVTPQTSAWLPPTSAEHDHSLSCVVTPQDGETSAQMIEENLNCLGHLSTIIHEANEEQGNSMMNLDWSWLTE
# [25] = biological target: Dual specificity tyrosine-phosphorylation-regulated kinase 1A (Homo sapiens) (UniProt Q13627); assay: Inhibition of DYRK1A at 10 uM; settings: values are per cent of control
# [26] = biological target: Tyrosine-protein kinase receptor UFO (Homo sapiens) (UniProt P30530); assay: Inhibition of AXL at 10 uM; settings: values are per cent of control
# [27] = biological target: Calcium-dependent protein kinase 1 (Plasmodium falciparum) (UniProt P62344); assay: Inhibition of Plasmodium falciparum PFCDPK1 at 10 uM; settings: values are per cent of control
# Chain of Calcium-dependent protein kinase 1 (Plasmodium falciparum) (P62344 2-524 limits assumed): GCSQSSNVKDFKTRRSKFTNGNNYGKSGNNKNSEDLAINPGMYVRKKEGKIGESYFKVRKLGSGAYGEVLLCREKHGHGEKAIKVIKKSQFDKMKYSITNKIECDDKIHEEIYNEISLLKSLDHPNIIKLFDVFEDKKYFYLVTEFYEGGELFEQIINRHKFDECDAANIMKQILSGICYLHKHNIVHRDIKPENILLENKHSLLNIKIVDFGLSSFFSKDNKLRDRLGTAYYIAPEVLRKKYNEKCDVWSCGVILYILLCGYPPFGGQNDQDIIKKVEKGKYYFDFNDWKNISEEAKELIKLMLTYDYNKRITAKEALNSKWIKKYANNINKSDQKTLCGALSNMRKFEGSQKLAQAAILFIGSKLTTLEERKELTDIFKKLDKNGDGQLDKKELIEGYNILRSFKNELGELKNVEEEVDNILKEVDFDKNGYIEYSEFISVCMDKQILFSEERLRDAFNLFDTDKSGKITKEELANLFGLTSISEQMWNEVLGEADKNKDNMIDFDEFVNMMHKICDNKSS
# [28] = biological target: Serine/threonine-protein kinase 38 (Homo sapiens) (UniProt Q15208); assay: Inhibition of NDR1 at 10 uM
# [29] = biological target: Ephrin type-B receptor 1 (Homo sapiens) (UniProt P54762); assay: Inhibition of EPHB1 at 10 uM; settings: values are per cent of control
# [30] = test system: Epidermal growth factor receptor (Homo sapiens), P00533 [L858R]; assay: Inhibition of EGFR L858R mutant at 10 uM; values are per cent of control
# [31] = biological target: Receptor-interacting serine/threonine-protein kinase 1 (Homo sapiens) (UniProt Q13546); assay: Inhibition of RIPK1 at 10 uM; settings: values are per cent of control
# [32] = test system: Tyrosine-protein kinase ABL1 (Homo sapiens), P00519 [Y253F]; assay: Inhibition of phosphorylated ABL1 Y253F mutant at 10 uM; settings: values are per cent of control
# [33] = biological target: Dual specificity mitogen-activated protein kinase kinase 3 (Homo sapiens) (UniProt P46734); assay: Inhibition of MEK3 at 10 uM; settings: values are per cent of control
# [34] = biological target: Phosphatidylinositol 5-phosphate 4-kinase type-2 gamma (Homo sapiens) (UniProt Q8TBX8); assay: Inhibition of PIP5K2C at 10 uM
# [35] = biological target: Serine/threonine-protein kinase 35 (Homo sapiens) (UniProt Q8TDR2); assay: Inhibition of STK35 at 10 uM
# [36] = biological target: Serine/threonine-protein kinase D3 (Homo sapiens) (UniProt O94806); assay: Inhibition of PRKD3 at 10 uM
# [37] = biological target: Serine/threonine-protein kinase RIO2 (Homo sapiens) (UniProt Q9BVS4); assay: Inhibition of RIOK2 at 10 uM; settings: values are per cent of control
# [38] = test system: Tyrosine-protein kinase ABL1 (Homo sapiens), P00519 [F317I]; assay: Inhibition of non phosphorylated ABL1 F317I mutant at 10 uM; settings: values are per cent of control
# [39] = biological target: Serine/threonine-protein kinase PAK 2 (Homo sapiens) (UniProt Q13177); assay: Inhibition of PAK2 at 10 uM
# Chain of Serine/threonine-protein kinase PAK 2 (Homo sapiens) (Q13177 whole entry): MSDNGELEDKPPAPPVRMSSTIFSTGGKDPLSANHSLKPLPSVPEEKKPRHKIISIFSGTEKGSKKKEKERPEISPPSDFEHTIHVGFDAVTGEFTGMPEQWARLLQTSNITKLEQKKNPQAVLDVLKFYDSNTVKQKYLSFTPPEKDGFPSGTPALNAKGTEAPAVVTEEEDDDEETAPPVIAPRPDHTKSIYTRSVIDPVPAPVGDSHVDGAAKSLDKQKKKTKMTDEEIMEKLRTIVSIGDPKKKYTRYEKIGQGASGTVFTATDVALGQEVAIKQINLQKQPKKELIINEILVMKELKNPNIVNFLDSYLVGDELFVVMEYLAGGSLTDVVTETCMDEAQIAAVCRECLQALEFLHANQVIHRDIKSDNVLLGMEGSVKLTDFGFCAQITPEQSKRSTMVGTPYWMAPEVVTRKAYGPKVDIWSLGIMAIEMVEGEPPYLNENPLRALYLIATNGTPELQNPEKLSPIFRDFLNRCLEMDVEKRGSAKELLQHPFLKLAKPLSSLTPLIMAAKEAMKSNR
# [40] = biological target: Myosin light chain kinase 2, skeletal/cardiac muscle (Homo sapiens) (UniProt Q9H1R3); assay: Inhibition of MYLK2 at 10 uM
# [41] = biological target: Tyrosine-protein kinase Blk (Homo sapiens) (UniProt P51451); assay: Inhibition of BLK at 10 uM; settings: values are per cent of control
# [42] = biological target: NUAK family SNF1-like kinase 1 (Homo sapiens) (UniProt O60285); assay: Inhibition of ARK5 at 10 uM; values are per cent of control
# Chain of Phosphatidylinositol 4,5-bisphosphate 3-kinase catalytic subunit alpha isoform (Homo sapiens), P42336 [Q546K] (P42336 whole entry Q546K, canonical isoform): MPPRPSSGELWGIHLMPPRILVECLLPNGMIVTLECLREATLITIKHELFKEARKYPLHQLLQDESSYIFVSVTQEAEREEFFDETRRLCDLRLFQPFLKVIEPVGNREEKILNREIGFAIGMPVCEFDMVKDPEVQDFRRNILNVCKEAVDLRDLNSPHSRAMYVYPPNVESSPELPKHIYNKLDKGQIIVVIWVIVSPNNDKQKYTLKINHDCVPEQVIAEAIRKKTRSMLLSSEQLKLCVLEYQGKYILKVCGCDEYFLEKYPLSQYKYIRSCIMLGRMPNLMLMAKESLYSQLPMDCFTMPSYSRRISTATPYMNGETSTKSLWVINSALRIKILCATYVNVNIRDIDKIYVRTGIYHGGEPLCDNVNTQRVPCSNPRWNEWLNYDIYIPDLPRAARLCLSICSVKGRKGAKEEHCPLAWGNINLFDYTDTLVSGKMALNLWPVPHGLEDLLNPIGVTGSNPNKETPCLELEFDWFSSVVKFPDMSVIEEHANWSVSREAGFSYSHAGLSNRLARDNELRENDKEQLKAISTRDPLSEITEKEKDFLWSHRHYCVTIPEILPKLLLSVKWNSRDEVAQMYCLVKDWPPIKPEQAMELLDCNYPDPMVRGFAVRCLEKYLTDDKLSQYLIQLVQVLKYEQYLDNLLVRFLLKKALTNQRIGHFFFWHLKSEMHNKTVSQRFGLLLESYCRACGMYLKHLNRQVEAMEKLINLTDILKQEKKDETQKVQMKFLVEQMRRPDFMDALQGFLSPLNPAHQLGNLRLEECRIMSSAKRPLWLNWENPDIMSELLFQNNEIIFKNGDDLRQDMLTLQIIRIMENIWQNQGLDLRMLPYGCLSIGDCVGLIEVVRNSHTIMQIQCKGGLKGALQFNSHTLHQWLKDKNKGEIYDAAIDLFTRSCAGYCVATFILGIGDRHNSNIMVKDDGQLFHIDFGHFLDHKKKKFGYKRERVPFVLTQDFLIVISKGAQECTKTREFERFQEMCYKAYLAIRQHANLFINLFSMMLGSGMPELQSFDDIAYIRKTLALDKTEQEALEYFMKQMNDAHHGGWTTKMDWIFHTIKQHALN
structure (smiles),measurement,setting,value
CCN1CCN(Cc2ccc(NC(=O)c3ccc(C)c(C#Cc4cnc5[nH]ccc5c4)c3)cc2C(F)(F)F)CC1,inhibition,[1],100%
same,inhibition,[2],100%
same,"level, % of control",[3],0.75%
same,"level, % of control",[4],0.1%
same,"residual binding, % of control",[5],97%
same,inhibition,[6],62%
same,"residual binding, % of control",[7],100%
same,"residual binding, % of control",[8],100%
same,"residual binding, % of control",[9],4.6%
same,"residual binding, % of control",[10],0%
same,"residual binding, % of control",[11],0.85%
same,"level, % of control",[12],13%
same,inhibition,[13],9.2%
same,"level, % of control",[14],1.2%
same,"residual binding, % of control",[15],12%
same,"residual binding, % of control",[16],12%
same,inhibition,[17],93%
same,"residual binding, % of control",[18],100%
same,inhibition,[19],47%
same,"residual binding, % of control",[20],96%
same,inhibition,[21],92%
same,"level, % of control",[22],3%
same,"residual binding, % of control",[23],0.25%
same,"residual binding, % of control",[24],0.45%
same,"residual binding, % of control",[25],100%
same,"residual binding, % of control",[26],0.1%
same,"residual binding, % of control",[27],0.2%
same,inhibition,[28],33%
same,"residual binding, % of control",[29],0.35%
same,"level, % of control",[30],0.25%
same,"residual binding, % of control",[31],0%
same,"residual binding, % of control",[32],0.2%
same,"residual binding, % of control",[33],67%
same,inhibition,[34],100%
same,inhibition,[35],0.8%
same,inhibition,[36],6.4%
same,"residual binding, % of control",[37],2%
same,"residual binding, % of control",[38],8.8%
same,inhibition,[39],76%
same,inhibition,[40],0.15%
same,"residual binding, % of control",[41],0%
same,"level, % of control",[42],95%
CCN1CCN(Cc2ccc(NC(=O)c3ccc(C)c(C#Cc4cccnc4)c3)cc2C(F)(F)F)CC1,inhibition,[1],89%
same,inhibition,[2],100%
same,"level, % of control",[3],0.9%
same,"level, % of control",[4],0.15%
same,"residual binding, % of control",[5],100%
same,inhibition,[6],81%
same,"residual binding, % of control",[7],100%
same,"residual binding, % of control",[8],100%
same,"residual binding, % of control",[9],30%
same,"residual binding, % of control",[10],0%
same,"residual binding, % of control",[11],8.8%
same,"level, % of control",[12],6.5%
same,inhibition,[13],73%
same,"level, % of control",[14],2%
same,"residual binding, % of control",[15],100%
same,"residual binding, % of control",[16],16%
same,inhibition,[17],93%
same,"residual binding, % of control",[18],100%
same,inhibition,[19],100%
same,"residual binding, % of control",[20],99%
same,inhibition,[21],90%
same,"level, % of control",[22],3%
same,"residual binding, % of control",[23],0.25%
same,"residual binding, % of control",[24],0%
same,"residual binding, % of control",[25],60%
same,"residual binding, % of control",[26],2.9%
same,"residual binding, % of control",[27],0.05%
same,inhibition,[28],4%
same,"residual binding, % of control",[29],0.5%
same,"level, % of control",[30],4%
same,"residual binding, % of control",[31],0.05%
same,"residual binding, % of control",[32],0.15%
same,"residual binding, % of control",[33],86%
same,inhibition,[34],100%
same,inhibition,[35],1.6%
same,inhibition,[36],22%
same,"residual binding, % of control",[37],0.5%
same,"residual binding, % of control",[38],8.8%
same,inhibition,[39],84%
same,inhibition,[40],3.4%
same,"residual binding, % of control",[41],0%
same,"level, % of control",[42],100%
